Patent publication US10219516B2, “Molecules having pesticidal utility, and intermediates, compositions, and processes, related thereto” (priority 2015, dated 2019)

Experiments:
Format in all cases: in vivo
[1] = test system: Beet Armyworm (Spodoptera exigua, LAPHEG); test: Bioassay on Beet Armyworm (BAW), 128-well diet tray assay; settings: Beet Armyworm, 128-well diet tray assay, read-out: BAW rating
Method in brief: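 In a 128-well format, eight wells per compound received a surface dose of 50 μg/cm^2 on artificial diet. After drying, each well got one to five second instar larvae, held at 25° C. with 14:10 photoperiod. Mortality percentages after five to seven days were averaged.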

[2] = test system: Cabbage Looper (Trichoplusia ni, TRIPNI); test: Bioassay on Cabbage Looper (CL), 128-well diet tray assay; settings: Trichoplusia ni; Cabbage Looper, 128-well diet tray assay; read-out: CL rating
Method in brief: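 Diet-incorporation-free surface assay: 50 μg/cm^2 compound in acetone-water (90:10), dried on diet; 1–5 2nd-instar larvae/well; 8 wells; vented cover; 25° C., 14:10 L:D, 5–7 d; % mortality averaged over wells.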

[3] = test system: Yellow Fever Mosquito (Aedes aegypti, AEDSAE); test: Bioassay on Yellow Fever Mosquito (YFM), 96-well plate larval assay; settings: Yellow Fever Mosquito, 96-well plate larval assay
Method in brief: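 Compound stocks at 4000 ppm in DMSO were diluted with 90:10 water/acetone, and 15 μL aliquots were dispensed into six replicate plates. About 1-day-old larvae in liver-powder water were added per well. Plates were covered and held at room temperature for 3 days before each well was scored for mortality.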

Row | SMILES | pest or weed control at 50 µg/cm2 [1] [%] | pest or weed control at 50 µg/cm2 [2] [%] | YFM rating [3]
1 | O=C(Nc1ccc2ncoc2c1)c1cc(NC(=O)C2C(c3cc(Cl)cc(Cl)c3)C2(Cl)Cl)ccc1Cl (stereo not drawn) [F450, N-(Benzo[d]oxazol-6-yl)-2-chloro-5-(trans)-2,2-dichloro-3-(3,5-dichlorophenyl)cyclopropane-1-carboxamido)benzamide] | 50 to 100 | 50 to 100 | A (80-100)
2 | O=C(Nc1cc2ocnc2cc1F)c1cc(NC(=O)C2C(c3cc(Cl)cc(Cl)c3)C2(Cl)Cl)ccc1Cl (stereo not drawn) [F453, 2-Chloro-5-(trans)-2,2-dichloro-3-(3,5-dichlorophenyl)cyclopropane-1-carboxamido)-N-(5-fluorobenzo[d]oxazol-6-yl)benzamide] | 50 to 100 | 50 to 100 | A (80-100)
3 | Cc1cc2cc(NC(=O)c3cc(NC(=O)C4C(c5cc(Cl)cc(Cl)c5)C4(Cl)Cl)ccc3Cl)ccc2[nH]1 (stereo not drawn) [F454, 2-Chloro-5-(trans)-2,2-dichloro-3-(3,5-dichlorophenyl)cyclopropane-1-carboxamido)-N-(2-methyl-1H-indol-5-yl)benzamide] | 50 to 100 | 50 to 100 | A (80-100)
4 | Cc1nc2cc(NC(=O)c3cc(NC(=O)C4C(c5cc(Cl)cc(Cl)c5)C4(Cl)Cl)ccc3Cl)ccc2s1 (stereo not drawn) [F455, 2-Chloro-5-(trans)-2,2-dichloro-3-(3,5-dichlorophenyl)cyclopropane-1-carboxamido)-N-(2-methylbenzo[d]thiazol-5-yl)benzamide] | 50 to 100 | 50 to 100 | A (80-100)
5 | O=C(Nc1ccc2[nH]cnc2c1)c1cc(NC(=O)C2C(c3cc(Cl)cc(Cl)c3)C2(Cl)Cl)ccc1Cl (stereo not drawn) [F456, N-(1H-Benzo[d]imidazol-5-yl)-2-chloro-5-(trans)-2,2-dichloro-3-(3,5-dichlorophenyl)cyclopropane-1-carboxamido)benzamide] | 50 to 100 | 50 to 100 | B (More than 0-Less than 80)
6 | Cn1ccc2cc(NC(=O)c3cc(NC(=O)C4C(c5cc(Cl)cc(Cl)c5)C4(Cl)Cl)ccc3Cl)ccc21 (stereo not drawn) [F457, 2-Chloro-5-(trans)-2,2-dichloro-3-(3,5-dichlorophenyl)cyclopropane-1-carboxamido)-N-(1-methyl-1H-indol-5-yl)benzamide] | 50 to 100 | 50 to 100 | A (80-100)
7 | O=C(Nc1ccc2nccn2c1)c1cc(NC(=O)C2C(c3cc(Cl)cc(Cl)c3)C2(Cl)Cl)ccc1Cl (stereo not drawn) [F475, 2-Chloro-5-(trans)-2,2-dichloro-3-(3,5-dichlorophenyl)cyclopropane-1-carboxamido)-N-(imidazo[1,2-a]pyridin-6-yl)benzamide] | 50 to 100 | 50 to 100 | A (80-100)
8 | C/S(=N\C#N)c1ccc(NC(=O)c2cc(NC(=O)C3C(c4cc(Cl)cc(Cl)c4)C3(Cl)Cl)ccc2Cl)cc1 (stereo not drawn) [F495, trans-2-chloro-N-(4-(N-cyano-S-methylsulfinimidoyl)phenyl)-5-(2,2-dichloro-3-(3,5-dichlorophenyl)cyclopropane-1-carboxamido)benzamide] | 50 to 100 | 50 to 100 | A (80-100)
9 | CN1Cc2ccc(NC(=O)c3cc(NC(=O)C4C(c5cc(Cl)cc(Cl)c5)C4(Cl)Cl)ccc3Cl)cc2C1 (stereo not drawn) [F498, 2-Chloro-5-(trans)-2,2-dichloro-3-(3,5-dichlorophenyl)cyclopropane-1-carboxamido)-N-(2-methylisoindolin-5-yl)benzamide] | 50 to 100 | 50 to 100 | A (80-100)
10 | CS(=O)(=NC#N)c1ccc(NC(=O)c2cc(NC(=O)C3C(c4cc(Cl)cc(Cl)c4)C3(Cl)Cl)ccc2Cl)cc1 (stereo not drawn) [F502, trans-2-chloro-N-(4-(N-cyano-S-methylsulfonimidoyl)phenyl)-5-(2,2-dichloro-3-(3,5-dichlorophenyl)cyclopropane-1-carboxamido)benzamide] | 50 to 100 | 50 to 100 | A (80-100)
11 | Cc1cc(/N=C/c2ccc(Cl)cc2)ccc1NC(=O)c1cc(NC(=O)C2C(c3cc(Cl)cc(Cl)c3)C2(Cl)Cl)ccc1Cl (stereo not drawn) [F510] | 50 to 100 | 50 to 100 | A (80-100)
12 | O=C(Nc1ncc(F)c(NCc2ccccc2)c1F)c1cc(NC(=O)[C@H]2[C@H](c3cc(Cl)cc(Cl)c3)C2(Cl)Cl)ccc1Cl [F524, N-(4-(Benzylamino)-3,5-difluoropyridin-2-yl)-2-chloro-5-((1R,3R)-2,2-dichloro-3-(3,5-dichlorophenyl)cyclopropane-1-carboxamido)benzamide] | 50 to 100 | 50 to 100 | A (80-100)
13 | O=C(Nc1cncc(NO)c1)c1cc(NC(=O)[C@H]2[C@H](c3cc(Cl)cc(Cl)c3)C2(Cl)Cl)ccc1Cl [F525, 2-Chloro-5-((1R,3R)-2,2-dichloro-3-(3,5-dichlorophenyl)cyclopropane-1-carboxamido)-N-(5-(hydroxyamino)pyridin-3-yl)benzamide] | 50 to 100 | 50 to 100 | A (80-100)
14 | O=C(Nc1cncc(NO)c1)c1cc(NC(=O)[C@H]2[C@H](c3ccc(Cl)c(Cl)c3)C2(Cl)Cl)ccc1Cl [F526, 2-Chloro-5-((1R,3R)-2,2-dichloro-3-(3,4-dichlorophenyl)cyclopropane-1-carboxamido)-N-(5-(hydroxyamino)pyridin-3-yl)benzamide] | 50 to 100 | 50 to 100 | A (80-100)
15 | O=C(Nc1ccc(F)cc1F)c1cc(NC(=O)[C@@H]2[C@@H](c3ccc(F)c(Cl)c3)C2(Cl)Cl)ccc1Cl [F534, 2-Chloro-5-((1S,3S)-2,2-dichloro-3-(3-chloro-4-fluorophenyl)cyclopropane-1-carboxamido)-N-(2,4-difluorophenyl)benzamide] | 50 to 100 | 50 to 100 | A (80-100)
16 | N#Cc1cc(F)ccc1NC(=O)c1cc(NC(=O)[C@H]2[C@H](c3cc(Cl)cc(Cl)c3)C2(Cl)Cl)ccc1Cl [F535, 2-Chloro-N-(2-cyano-4-fluorophenyl)-5-((1R,3R)-2,2-dichloro-3-(3,5-dichlorophenyl)cyclopropane-1-carboxamido)benzamide] | 50 to 100 | 50 to 100 | A (80-100)
17 | N#Cc1cc(F)ccc1NC(=O)c1cc(NC(=O)[C@@H]2[C@@H](c3cc(Cl)cc(Cl)c3)C2(Cl)Cl)ccc1Cl [F536, 2-Chloro-N-(2-cyano-4-fluorophenyl)-5-((1S,3S)-2,2-dichloro-3-(3,5-dichlorophenyl)cyclopropane-1-carboxamido)benzamide] | 50 to 100 | 50 to 100 | A (80-100)
18 | COc1c(F)cc(C2C(C(=O)Nc3ccc(Cl)c(C(=O)Nc4ccc(F)cc4F)c3)C2(Cl)Cl)cc1F (stereo not drawn) [F537, 2-Chloro-5-trans-(2,2-dichloro-3-(3,5-difluoro-4-methoxyphenyl)cyclopropane-1-carboxamido)-N-(2,4-difluorophenyl)benzamide] | 50 to 100 | 50 to 100 | A (80-100)
19 | O=C(Nc1ccc(F)cc1[N+](=O)[O-])c1cc(NC(=O)[C@H]2[C@H](c3cc(Cl)cc(Cl)c3)C2(Cl)Cl)ccc1Cl [F554, 2-Chloro-5-((1R,3R)-2,2-dichloro-3-(3,5-dichlorophenyl)cyclopropane-1-carboxamido)-N-(4-fluoro-2-nitrophenyl)benzamide] | 50 to 100 | 50 to 100 | A (80-100)
20 | O=C(Nc1ccc(F)cc1[N+](=O)[O-])c1cc(NC(=O)[C@H]2[C@H](c3ccc(Cl)c(Cl)c3)C2(Cl)Cl)ccc1Cl [F555, 2-Chloro-5-((1R,3R)-2,2-dichloro-3-(3,4-dichlorophenyl)cyclopropane-1-carboxamido)-N-(4-fluoro-2-nitrophenyl)benzamide] | 50 to 100 | 50 to 100 | A (80-100)
21 | O=C(Nc1ccc(F)cc1[N+](=O)[O-])c1cc(NC(=O)[C@H]2[C@H](c3cc(Cl)c(Cl)c(Cl)c3)C2(Cl)Cl)ccc1Cl [F556, 2-Chloro-5-((1R,3R)-2,2-dichloro-3-(3,4,5-trichlorophenyl)cyclopropane-1-carboxamido)-N-(4-fluoro-2-nitrophenyl)benzamide] | 50 to 100 | 50 to 100 | A (80-100)
22 | O=C(Nc1ccc(F)cc1[N+](=O)[O-])c1cc(NC(=O)[C@H]2[C@H](c3ccc(F)c(Cl)c3)C2(Cl)Cl)ccc1Cl [F557, 2-Chloro-5-((1R,3R)-2,2-dichloro-3-(3-chloro-4-fluorophenyl)cyclopropane-1-carboxamido)-N-(4-fluoro-2-nitrophenyl)benzamide] | 50 to 100 | 50 to 100 | A (80-100)
23 | O=C(NC1CCc2ncccc2C1)c1cc(NC(=O)C2C(c3cc(Cl)cc(Cl)c3)C2(Cl)Cl)ccc1Cl (stereo not drawn) [F567, 2-Chloro-5-trans-(2,2-dichloro-3-(3,5-dichlorophenyl)cyclopropane-1-carboxamido)-N-(5,6,7,8-tetrahydroquinolin-6-yl)benzamide] | 50 to 100 | 50 to 100 | A (80-100)
